# Source: US20100056524A1, “Compound” (priority 2008, published 2010)
# Counter-ions that a name gives are not always drawn.
# Biological target: T1, TBK1 (Homo sapiens, UniProt Q9UHD2)
# T1 construct: All protein kinases were of human origin and encoded full length proteins, unless indicated otherwise; His6; made in house; host or cells: insect Sf21 cells
# T1 sequence (Q9UHD2 1-729): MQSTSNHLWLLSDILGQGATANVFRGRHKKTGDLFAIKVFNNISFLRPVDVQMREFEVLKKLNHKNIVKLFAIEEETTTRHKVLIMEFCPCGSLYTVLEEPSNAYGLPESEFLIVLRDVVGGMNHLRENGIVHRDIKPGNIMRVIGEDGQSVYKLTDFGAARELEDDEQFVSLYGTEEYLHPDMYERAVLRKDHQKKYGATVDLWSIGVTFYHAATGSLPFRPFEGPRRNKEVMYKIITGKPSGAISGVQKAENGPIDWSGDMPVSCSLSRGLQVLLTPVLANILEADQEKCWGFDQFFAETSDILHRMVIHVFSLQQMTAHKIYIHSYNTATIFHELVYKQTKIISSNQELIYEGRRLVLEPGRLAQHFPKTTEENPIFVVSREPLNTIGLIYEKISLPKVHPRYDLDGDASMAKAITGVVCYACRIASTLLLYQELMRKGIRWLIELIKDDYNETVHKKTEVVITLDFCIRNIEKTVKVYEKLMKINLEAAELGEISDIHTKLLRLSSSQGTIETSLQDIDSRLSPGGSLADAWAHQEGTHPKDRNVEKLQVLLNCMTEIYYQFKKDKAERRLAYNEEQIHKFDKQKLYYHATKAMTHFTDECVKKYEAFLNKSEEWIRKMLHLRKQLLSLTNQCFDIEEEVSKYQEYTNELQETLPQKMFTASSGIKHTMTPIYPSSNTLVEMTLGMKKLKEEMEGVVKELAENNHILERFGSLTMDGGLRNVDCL
# Experiment: TBK1 protein kinase assay ([γ-33P]ATP, P81 filterplates)
# Format: biochemical
# Conditions: 50 μM ATP; read-out: Potency (TBK1 IC50 potency score)
# Excerpt: All protein kinases were of human origin and encoded full length proteins, unless indicated otherwise. They were either expressed as glutathione S-transferase (GST) fusion proteins in Escherichia Coli or as hexahistidine (His6)-tagged proteins in insect Sf21 cells. GST fusion proteins were purified by affinity chromatography on glutathione-Sepharose, and His6-tagged proteins on nickel/nitriloacetate-agarose. The procedures for expressing some of the protein kinases used herein have been detailed previously.^8,9 The following sections outline the DNA vectors synthesised and the procedures used to express and purifying protein kinases that have not been reported previously.
# The following kinases were expressed in Sf21 cells: Aurora B and Aurora C, extra-cellular signal-regulated kinase 8 (ERK8), microtubule affinity regulating kinase 3 (MARK3), protein kinase Bα[118-480][S473D], protein kinase Bβ (PKBβ[120-481][S474D], 3-phosphoinositide-dependent protein kinase-1 [52-556]
# Assays were performed for 30 min using Multidrop Micro reagent dispensers (Thermo Electron Corporation, Waltham, Mass. 02454, USA) in a 96-well format. The concentration of magnesium acetate in the assays was 10 mM and the [γ-33P] ATP (800 cpm/pmol) was used at 5, 20 or 50 μM as indicated, in order to be at or below the Km for ATP for each enzyme. Protein kinases assayed at 5 μM ATP were: —ERK1, ERK8, PKBα, MARK3, Aurora C. Protein kinases assayed at 20 μM ATP were: —JNK1, PDK1, CHK1, CHK2, CDK2 and Aurora B. Protein kinases assayed at 50 μM ATP were: —MNK2, IKKepsilon and TBK1.
# The assays were initiated with MgATP, stopped by addition of 5 μl of 0.5 M orthophosphoric acid and spotted on to P81 filterplates using a unifilter harvester (PerkinElmer, Boston, Mass. 02118, USA). The IC50 values of inhibitors were determined after carrying out assays at 10 different concentrations of each compound.
# ERK1 and ERK8 were both assayed against myelin basic protein (MBP, 0.33 mg/ml). MARK3 was assayed against the peptide […] (300 μM), MNK2 against the eIF4E protein (0.5 mg/ml). PKBβ was assayed against the peptide […] (30 μM). TBK1 were assayed against ([…]) (300 μM). The substrates used for other protein kinases were described previously.^8,9
# Unless stated otherwise, enzymes were diluted in 50 mM Tris/HCl pH 7.5, 0.1 mM EGTA, 1 mg/ml BSA, 0.1% (v/v) 2-mercaptoethanol and assayed in 50 mM Tris/HCl pH 7.5, 0.1 mM EGTA, 0.1% (v/v) 2-mercaptoethanol.
row,IC50 [nM],SMILES
1,< 100,"O=C(NCCCNc1nc(Nc2cccc(OCCN3CCOCC3)c2)ncc1C1CC1)C1CCC1 [Example 143, Cyclobutanecarboxylic acid (3-{5-cyclopropyl-2-[3-(2-morpholin-4-yl-ethoxy)-phenylamino]-pyrimidin-4-ylamino}-propyl)-amide]"
2,< 100,"O=C(NCCCNc1nc(Nc2ccc(-c3cncnc3)nc2)ncc1C1CC1)C1CCC1 [Example 116, Cyclobutanecarboxylic acid {3-[5-cyclopropyl-2-(6-pyrimidin-5-yl-pyridin-3-ylamino)-pyrimidin-4-ylamino]-propyl}-amide]"
3,< 100,"O=C(NCCCNc1nc(Nc2ccc(N3CCOCC3)cc2)ncc1C1CC1)C1CCC1 [Example 166, Cyclobutanecarboxylic acid {3-[5-cyclopropyl-2-(4-morpholin-4-yl-phenylamino)-pyrimidin-4-ylamino]-propyl}-amide]"
4,< 100,"O=C(NCCCNc1nc(Nc2cccc(C(=O)N3CCCC3)c2)ncc1C1CC1)C1CCC1 [Example 124, Cyclobutanecarboxylic acid (3-{5-cyclopropyl-2-[3-(pyrrolidine-1-carbonyl)-phenylamino]-pyrimidin-4-ylamino}-propyl)-amide]"
5,< 100,"O=C(NCCCNc1nc(Nc2ccc(Cl)nc2)ncc1C1CC1)C1CCC1 [Example 99, Cyclobutanecarboxylic acid {3-[2-(6-chloro-pyridin-3-ylamino)-5-cyclopropyl-pyrimidin-4-ylamino]-propyl}-amide]"
6,< 100,"CN(C)CCc1ccc(Nc2ncc(C3CC3)c(NCCCNC(=O)C3CCC3)n2)cc1 [Example 172, Cyclobutanecarboxylic acid (3-{5-cyclopropyl-2-[4-(2-dimethylamino-ethyl)-phenylamino]-pyrimidin-4-ylamino}-propyl)-amide]"
7,< 100,"O=C(NCCCNc1nc(Nc2ccc3cnn(CC4CC4)c3c2)ncc1C1CC1)C1CCC1 [Example 193, Cyclobutanecarboxylic acid {3-[5-cyclopropyl-2-(1-cyclopropylmethyl-1H-indazol-6-ylamino)-pyrimidin-4-ylamino]-propyl}-amide]"
8,100 to 1000,"CC1(C)CCN(CCCNc2nc(Nc3cccc(F)c3)ncc2C2CC2)C1=O [Example 113, 1-{3-[5-Cyclopropyl-2-(3-fluoro-phenylamino)-pyrimidin-4-ylamino]-propyl}-3,3-dimethyl-pyrrolidin-2-one]"
9,< 100,"CN(CCCNc1nc(Nc2ccc(N3CCOCC3)nc2)ncc1C1CC1)C(=O)C1CCC1 [Example 109, Cyclobutanecarboxylic acid {3-[5-cyclopropyl-2-(6-morpholin-4-yl-pyridin-3-ylamino)-pyrimidin-4-ylamino]-propyl}-methyl-amide]"
10,< 100,"CN(C)[C@@H]1CCN(Cc2ccc(Nc3ncc(C4CC4)c(NCCCNC(=O)C4CCC4)n3)cn2)C1 [Example 159, Cyclobutanecarboxylic acid (3-{5-cyclopropyl-2-[6-((R)-3-dimethylamino-pyrrolidin-1-ylmethyl)-pyridin-3-ylamino]-pyrimidin-4-ylamino}-propyl)-amide]"
11,< 100,"O=C(NCCCNc1nc(Nc2cccc(N3CCNC3=O)c2)ncc1C1CC1)C1CCC1 [Example 140, Cyclobutanecarboxylic acid (3-{5-cyclopropyl-2-[3-(2-oxo-imidazolidin-1-yl)-phenylamino]-pyrimidin-4-ylamino}-propyl)-amide]"
12,< 100,"Cn1ncc2ccc(Nc3ncc(C4CC4)c(NCCCNC(=O)C4CCC4)n3)cc21 [Example 139, Cyclobutanecarboxylic acid {3-[5-cyclopropyl-2-(1-methyl-1H-indazol-6-ylamino)-pyrimidin-4-ylamino]-propyl}-amide]"
13,< 100,"O=C(NCCCNc1nc(Nc2ccc3c(c2)CN(CCO)C3=O)ncc1C1CC1)C1CCC1 [Example 168, Cyclobutanecarboxylic acid (3-{5-cyclopropyl-2-[2-(2-hydroxy-ethyl)-1-oxo-2,3-dihydro-1H-isoindol-5-ylamino]-pyrimidin-4-ylamino}propyl)-amide]"
14,1000 to 10000,"O=C(NCCCNc1nc(Nc2cncnc2)ncc1C1CC1)C1CCC1 [Example 149, Cyclobutanecarboxylic acid {3-[5-cyclopropyl-2-(pyrimidin-5-ylamino)-pyrimidin-4-ylamino]-propyl}-amide]"

# Second part, the compound before the results:
row,SMILES,IC50 [nM]
1,"O=C(NCCCNc1nc(Nc2ccc(F)c(F)c2)ncc1C1CC1)C1CCC1 [Example 85, Cyclobutanecarboxylic acid {3-[5-cyclopropyl-2-(3,4-difluoro-phenylamino)-pyrimidin-4-ylamino]-propyl}-amide]",< 100
2,"O=C(O)Cc1cccc(Nc2ncc(C3CC3)c(NCCCNC(=O)C3CCC3)n2)c1 [Example 95, (3-{4-[3-(Cyclobutanecarbonyl-amino)-propylamino]-5-cyclopropyl-pyrimidin-2-ylamino}-phenyl)-acetic acid. Hydrochloride]",< 100
3,"O=C1NCc2cc(Nc3ncc(C4CC4)c(NCCCNC(=O)C4CCC4)n3)ccc21 [Example 90, Cyclobutanecarboxylic acid {3-[5-cyclopropyl-2-(1-oxo-2,3-dihydro-1H-isoindol-5-ylamino)-pyrimidin-4-ylamino]-propyl}-amide. Trifluoroacetic acid salt]",< 100
4,"O=C(NCCCNc1nc(Nc2cccc(F)c2)ncc1C1CC1)C1CC1 [Example 25, Cyclopropanecarboxylic acid {3-[5-cyclopropyl-2-(3-fluoro-phenylamino)-pyrimidin-4-ylamino]-propyl}-amide]",100 to 1000
5,"O=C(NCCCNc1nc(Nc2cccc(OC(F)(F)F)c2)ncc1C1CC1)c1cccs1 [Example 35, Thiophene-2-carboxylic acid {3-[5-cyclopropyl-2-(3-trifluoromethoxy-phenylamino)-pyrimidin-4-ylamino]-propyl}-amide trifluoroacetic acid salt]",100 to 1000
6,"CN1CCN(c2ccc(Nc3ncc(C4CC4)c(NCCCNC(=O)C4CCC4)n3)cn2)CC1 [Example 43, Cyclobutanecarboxylic acid (3-{5-cyclopropyl-2-[6-(4-methyl-piperazin-1-yl)-pyridin-3-ylamino]-pyrimidin-4-ylamino}-propyl)-amide]",< 100
7,"O=C(NCCCNc1nc(Nc2cccc(Cl)c2)ncc1C1CC1)c1cccs1 [Example 55, Thiophene-2-carboxylic acid {3-[2-(3-chloro-phenylamino)-5-cyclopropyl-pyrimidin-4-ylamino]-propyl}-amide]",100 to 1000
8,"O=C(NCCCNc1nc(Nc2ccncc2)ncc1C1CC1)c1cccs1 [Example 63, Thiophene-2-carboxylic acid {3-[5-cyclopropyl-2-(pyridin-4-ylamino)-pyrimidin-4-ylamino]-propyl}-amide]",100 to 1000
9,"CC(=O)Nc1ccc(Nc2ncc(C3CC3)c(NCCCNC(=O)c3cccs3)n2)cc1 [Example 28, Thiophene-2-carboxylic acid {3-[2-(4-acetylamino-phenylamino)-5-cyclopropyl-pyrimidin-4-ylamino]-propyl}-amide. Hydrochloride salt]",< 100
10,"O=C(NCCCNc1nc(Nc2cccc(F)c2)ncc1C1CC1)c1ccsc1 [Example 17, Thiophene-3-carboxylic acid {3-[5-cyclopropyl-2-(3-fluoro-phenylamino)-pyrimidin-4-ylamino]-propyl}-amide]",< 100
